Laboratory results published in paper PMC7439263 (ACS Omega, 2020).
Blank lines part the entries; values can stand above or below the compound they belong to.

Experiments:
glycogenic enzymes = conditions: rats ref 47; cited from earlier work
[1] = system: α-Glucosidase (from Saccharomyces cerevisiae); assay: Assay for α-glucosidase inhibitory activity; type: biochemical; conditions: for α-glucosidase inhibitory activity compared to acarbose (in words): Figure 3, 150 μM, p < 0.05; for total activity α-glucosidase: total activity = amount (mg/kg)/IC50 (mg/mL); for IC50: read-out: IC50 α-glucosidase, mean ± SD (n = 3)
[2] = system: α-Glucosidase (from Saccharomyces cerevisiae); assay: Inhibitory kinetics analysis against the α-glucosidase enzyme; type: biochemical; conditions: Lineweaver–Burk plot analysis, sucrose substrate
[3] = STZ-induced diabetic rats ref 46; cited from earlier work
[4] = molecular target: T1, α-amylase (from the porcine pancreas) (Sus scrofa, UniProt P00690); assay: biochemical; type: biochemical; conditions: for IC50: IC50 α-amylase, mean ± SD (n = 3)
T1 sequence (P00690 16-511): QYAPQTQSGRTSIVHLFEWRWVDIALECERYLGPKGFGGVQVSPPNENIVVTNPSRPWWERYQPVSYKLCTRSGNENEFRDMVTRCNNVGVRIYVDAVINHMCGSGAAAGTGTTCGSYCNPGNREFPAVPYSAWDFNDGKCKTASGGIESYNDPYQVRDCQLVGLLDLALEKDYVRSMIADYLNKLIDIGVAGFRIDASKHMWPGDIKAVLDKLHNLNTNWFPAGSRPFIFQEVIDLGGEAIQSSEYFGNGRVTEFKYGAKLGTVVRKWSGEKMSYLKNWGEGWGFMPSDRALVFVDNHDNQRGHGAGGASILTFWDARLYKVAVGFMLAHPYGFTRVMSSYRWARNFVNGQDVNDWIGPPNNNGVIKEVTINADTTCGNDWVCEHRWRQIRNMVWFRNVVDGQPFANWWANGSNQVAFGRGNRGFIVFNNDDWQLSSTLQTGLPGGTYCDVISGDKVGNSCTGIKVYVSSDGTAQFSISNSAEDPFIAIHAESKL

glycogen phosphorylase = conditions: cited from earlier work
[5] = in vivo ref 49; cited from earlier work
α-amylase = conditions: cited from earlier work
α-glucosidase = conditions: cited from earlier work

α-glucosidase inhibitory activity compared to acarbose (in words) [1]: higher than that of acarbose
total activity α-glucosidase [1]: 5359.5
inhibition type against α-glucosidase [2]: partial mixed inhibitor
inhibition type against α-glucosidase ([2]; listed as 1): mixed-type
Structure (SMILES): CC1(C)CC[C@]2(C(=O)O)CC[C@]3(C)C(=CC[C@@H]4[C@@]5(C)CC[C@H](O)C(C)(C)[C@@H]5CC[C@]43C)[C@@H]2C1 [oleanolic acid 1, oleanolic acid]
glycogen levels and glycogenic enzymes (glycogenic enzymes): reduced glycogen levels and glycogenic enzymes
blood glucose levels [3]: lower blood glucose levels

α-amylase inhibitory activity compared to acarbose (in words) [4]: acarbose had higher activity than them
IC50 [4]: 67 ± 5.4 µM
total activity α-amylase ([4]; total activity = amount (mg/kg)/IC50 (mg/mL)): 5678.2
α-glucosidase inhibitory activity compared to acarbose (in words) [1]: higher than that of acarbose
IC50 [1]: 34.5 ± 1.4 µM
total activity α-glucosidase [1]: 11042.9
Structure (SMILES): CC1(C)CC[C@]2(C(=O)O)CC[C@]3(C)C(=CC[C@@H]4[C@@]5(C)C[C@@H](O)[C@H](O)C(C)(C)[C@@H]5CC[C@]43C)[C@@H]2C1 [maslinic acid 2, maslinic acid]
blood glucose levels / glycogen phosphorylase inhibition (glycogen phosphorylase): reduce blood glucose levels by inhibiting glycogen phosphorylase

IC50 [4]: > 500 µM
inhibition at 500 µM ([4]; read-out: α-amylase inhibitory activity at highest tested concentration): < 10%
α-glucosidase inhibitory activity at highest tested concentration ([1]; 1000 μM): less than 10%
IC50 [1]: > 1000 µM
Structure (SMILES): OCCc1ccc(O)c(O)c1 [hydroxytyrosol 7, hydroxytyrosol]

Structure (SMILES): C[C@H]1[C@H](C)CC[C@]2(C(=O)O)CC[C@]3(C)C(=CC[C@@H]4[C@@]5(C)C[C@@H](O)[C@H](O)C(C)(C)[C@@H]5CC[C@]43C)[C@H]12 [corosoric acid]
post-challenge plasma glucose levels [5]: significant effect on lowering post-challenge plasma glucose levels
α-amylase inhibitory activity in vitro (in words) (α-amylase): strong inhibitory activity
α-glucosidase inhibitory activity in vitro (in words) (α-glucosidase): strong inhibitory activity
